Laboratory results taken from patent publication US20240327353A1.
Read-outs that look alike come from different tables or passages of the source.

Legend:
[1] = biological target: T1, 5-HT1A (Homo sapiens, UniProt P08908); assay: Radioligand binding, cell membranes; conditions: for pKi 5-HT1A: [^3H]5-CT, mean of n independent experiments
T1 construct: host or cells: HEK293T, transient
T1 sequence (P08908 1-422): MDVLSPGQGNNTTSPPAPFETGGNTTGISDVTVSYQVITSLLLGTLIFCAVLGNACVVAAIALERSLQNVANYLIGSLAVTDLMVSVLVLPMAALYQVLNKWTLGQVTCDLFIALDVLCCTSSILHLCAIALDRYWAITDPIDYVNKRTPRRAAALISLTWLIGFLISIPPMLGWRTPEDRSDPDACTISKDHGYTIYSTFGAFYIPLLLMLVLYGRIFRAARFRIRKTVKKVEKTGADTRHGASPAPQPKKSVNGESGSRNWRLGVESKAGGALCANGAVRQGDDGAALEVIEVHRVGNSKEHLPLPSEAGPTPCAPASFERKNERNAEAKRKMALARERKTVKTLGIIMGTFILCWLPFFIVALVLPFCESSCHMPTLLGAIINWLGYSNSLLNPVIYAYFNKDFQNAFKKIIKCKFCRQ
Protocol: (§1) Transfections were performed for 48 hours.

[2] = biological target: 5-HT7 (Homo sapiens, UniProt P34969); assay: Radioligand binding, cell membranes; conditions: for pKi 5-HT7: [^3H]5-CT, mean of n independent experiments
Chain of 5-HT7 (P34969 1-445 isoform P34969-2): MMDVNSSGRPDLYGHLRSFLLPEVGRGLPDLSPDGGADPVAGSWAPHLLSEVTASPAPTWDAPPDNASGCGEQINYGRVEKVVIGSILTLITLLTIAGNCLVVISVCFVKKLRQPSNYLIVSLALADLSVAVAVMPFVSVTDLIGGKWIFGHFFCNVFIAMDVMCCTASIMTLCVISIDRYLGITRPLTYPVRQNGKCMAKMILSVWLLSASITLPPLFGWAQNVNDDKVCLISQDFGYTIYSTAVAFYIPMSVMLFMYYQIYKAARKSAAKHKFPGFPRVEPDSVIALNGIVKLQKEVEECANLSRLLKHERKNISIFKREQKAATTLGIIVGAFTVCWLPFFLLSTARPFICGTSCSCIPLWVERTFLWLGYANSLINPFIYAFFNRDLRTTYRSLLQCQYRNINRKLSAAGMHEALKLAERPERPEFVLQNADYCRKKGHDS
Protocol: as §1

[3] = biological target: D2L (Homo sapiens, UniProt P14416); assay: Radioligand binding, cell membranes; conditions: for pKi D2L: [^3H]spiperone, mean of n independent experiments
Chain of D2L (P14416 whole entry): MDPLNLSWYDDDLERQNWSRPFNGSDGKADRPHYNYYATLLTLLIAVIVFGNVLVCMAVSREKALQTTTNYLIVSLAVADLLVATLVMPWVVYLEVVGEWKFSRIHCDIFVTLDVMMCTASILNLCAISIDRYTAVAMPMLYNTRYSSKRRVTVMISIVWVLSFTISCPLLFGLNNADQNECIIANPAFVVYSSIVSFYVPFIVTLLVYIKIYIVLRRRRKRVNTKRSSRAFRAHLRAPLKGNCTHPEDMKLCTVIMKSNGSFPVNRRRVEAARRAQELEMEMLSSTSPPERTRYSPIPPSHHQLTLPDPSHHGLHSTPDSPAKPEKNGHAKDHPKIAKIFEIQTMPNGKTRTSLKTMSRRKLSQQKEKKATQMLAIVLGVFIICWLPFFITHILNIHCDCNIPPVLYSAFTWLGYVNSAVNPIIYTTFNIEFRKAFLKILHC
Protocol: as §1

[4] = biological target: D3 (Homo sapiens, UniProt P35462); assay: Radioligand binding, cell membranes
Chain of D3 (P35462 whole entry): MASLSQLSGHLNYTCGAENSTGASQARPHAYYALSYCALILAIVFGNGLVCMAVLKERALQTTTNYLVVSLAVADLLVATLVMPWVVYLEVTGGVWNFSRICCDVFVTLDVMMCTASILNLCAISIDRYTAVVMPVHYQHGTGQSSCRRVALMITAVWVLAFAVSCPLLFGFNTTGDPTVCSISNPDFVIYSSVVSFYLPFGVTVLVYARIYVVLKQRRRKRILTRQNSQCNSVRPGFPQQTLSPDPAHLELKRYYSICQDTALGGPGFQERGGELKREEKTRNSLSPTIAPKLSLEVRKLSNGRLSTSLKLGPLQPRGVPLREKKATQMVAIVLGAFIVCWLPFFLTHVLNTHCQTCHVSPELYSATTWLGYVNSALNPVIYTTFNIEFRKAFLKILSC
Protocol: as §1

[5] = biological target: T2, C322K^6.34 5-HT2AR (Homo sapiens, UniProt P28223, C322K); assay: IP1 accumulation assay, inverse agonism at constitutively activated receptor; format: cell-based
T2 construct: expressed in transfected cells; host or cells: clonal cells
T2 sequence (P28223 whole entry C322K): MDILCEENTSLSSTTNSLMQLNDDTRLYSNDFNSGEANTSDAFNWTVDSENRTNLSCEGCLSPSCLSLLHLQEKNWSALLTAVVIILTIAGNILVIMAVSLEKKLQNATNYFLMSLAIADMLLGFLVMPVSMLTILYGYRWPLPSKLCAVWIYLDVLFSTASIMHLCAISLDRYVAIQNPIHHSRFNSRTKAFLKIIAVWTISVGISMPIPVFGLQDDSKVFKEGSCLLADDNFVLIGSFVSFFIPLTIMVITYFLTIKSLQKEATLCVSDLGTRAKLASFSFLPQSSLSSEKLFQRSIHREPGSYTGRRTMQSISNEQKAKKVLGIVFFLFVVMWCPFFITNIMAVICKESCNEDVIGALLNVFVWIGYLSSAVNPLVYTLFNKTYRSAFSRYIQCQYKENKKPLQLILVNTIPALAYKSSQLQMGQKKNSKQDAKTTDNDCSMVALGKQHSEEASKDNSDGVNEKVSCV
Protocol: as §1

[6] = tested on: male C57BL/6J mice; assay: Locomotor activity, compound alone (open field); format: in vivo; conditions: 3 mg*kg^−1 s.c. (FIG. 3C)
[7] = biological target: T3, 5-HT2BR (Homo sapiens, UniProt P41595)
T3 sequence (P41595 whole entry): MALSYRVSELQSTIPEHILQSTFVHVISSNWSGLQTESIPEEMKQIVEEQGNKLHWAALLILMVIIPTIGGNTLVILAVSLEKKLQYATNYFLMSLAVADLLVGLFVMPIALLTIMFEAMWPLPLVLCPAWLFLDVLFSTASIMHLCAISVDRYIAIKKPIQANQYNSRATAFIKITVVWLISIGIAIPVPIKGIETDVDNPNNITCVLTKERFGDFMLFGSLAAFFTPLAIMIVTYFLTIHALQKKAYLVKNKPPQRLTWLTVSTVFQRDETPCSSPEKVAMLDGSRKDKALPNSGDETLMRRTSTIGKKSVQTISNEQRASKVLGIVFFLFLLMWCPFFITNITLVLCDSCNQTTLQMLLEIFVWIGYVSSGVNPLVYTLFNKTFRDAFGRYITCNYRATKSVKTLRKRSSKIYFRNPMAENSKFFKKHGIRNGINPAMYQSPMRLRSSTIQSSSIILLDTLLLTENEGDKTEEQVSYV

[8] = biological target: T4, α1A-adrenergic receptor (Homo sapiens, UniProt P35348)
T4 sequence (P35348 1-466): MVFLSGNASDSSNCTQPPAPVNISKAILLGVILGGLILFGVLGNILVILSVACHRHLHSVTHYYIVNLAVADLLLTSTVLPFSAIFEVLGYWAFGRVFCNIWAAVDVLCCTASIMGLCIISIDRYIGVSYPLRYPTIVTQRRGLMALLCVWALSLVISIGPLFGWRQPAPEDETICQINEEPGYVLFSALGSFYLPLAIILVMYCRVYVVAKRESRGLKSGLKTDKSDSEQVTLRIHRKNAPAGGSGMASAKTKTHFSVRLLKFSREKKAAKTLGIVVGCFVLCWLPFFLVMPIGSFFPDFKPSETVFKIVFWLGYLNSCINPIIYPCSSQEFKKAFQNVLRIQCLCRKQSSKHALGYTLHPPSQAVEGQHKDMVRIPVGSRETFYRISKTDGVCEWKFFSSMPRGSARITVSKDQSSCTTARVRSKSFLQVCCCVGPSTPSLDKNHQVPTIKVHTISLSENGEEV

[9] = biological target: T5, α1B-adrenergic receptor (Homo sapiens, UniProt P35368)
T5 sequence (P35368 1-520): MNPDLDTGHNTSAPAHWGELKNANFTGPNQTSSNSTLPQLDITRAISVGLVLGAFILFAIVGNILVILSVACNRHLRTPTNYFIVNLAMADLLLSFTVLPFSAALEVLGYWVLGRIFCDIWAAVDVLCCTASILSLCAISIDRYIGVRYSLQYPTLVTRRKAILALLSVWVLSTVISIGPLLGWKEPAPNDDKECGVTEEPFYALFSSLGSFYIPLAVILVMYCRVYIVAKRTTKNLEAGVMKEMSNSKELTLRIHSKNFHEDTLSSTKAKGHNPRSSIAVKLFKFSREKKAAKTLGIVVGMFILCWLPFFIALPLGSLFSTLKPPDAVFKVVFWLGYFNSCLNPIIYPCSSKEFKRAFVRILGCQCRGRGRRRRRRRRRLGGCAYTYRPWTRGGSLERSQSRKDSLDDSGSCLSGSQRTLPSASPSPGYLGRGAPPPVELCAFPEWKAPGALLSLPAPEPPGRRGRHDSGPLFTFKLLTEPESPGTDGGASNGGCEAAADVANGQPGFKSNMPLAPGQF

[10] = biological target: human wild-type 5-HT2B (Homo sapiens, UniProt P41595); assay: IP-One HTRF IP1 accumulation assay
Chain of human wild-type 5-HT2B (P41595 whole entry): as the sequence (P41595 whole entry) above

[11] = biological target: human wild-type 5-HT2C (Homo sapiens, UniProt P28335); assay: IP-One HTRF IP1 accumulation assay
Chain of human wild-type 5-HT2C (P28335 33-458): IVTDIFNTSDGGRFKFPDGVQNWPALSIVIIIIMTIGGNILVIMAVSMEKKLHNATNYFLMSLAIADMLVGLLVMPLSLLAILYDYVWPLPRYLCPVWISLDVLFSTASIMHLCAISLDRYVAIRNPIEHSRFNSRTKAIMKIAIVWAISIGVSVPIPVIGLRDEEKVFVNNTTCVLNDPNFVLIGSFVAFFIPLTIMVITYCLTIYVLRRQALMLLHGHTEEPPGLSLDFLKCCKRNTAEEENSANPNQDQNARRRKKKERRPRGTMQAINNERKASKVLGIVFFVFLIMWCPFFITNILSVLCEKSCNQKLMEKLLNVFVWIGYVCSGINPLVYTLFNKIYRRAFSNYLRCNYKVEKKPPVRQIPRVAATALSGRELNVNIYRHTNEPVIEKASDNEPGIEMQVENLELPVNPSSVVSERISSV

[12] = tested on: male C57BL/6J mice; assay: (±)-DOI-elicited head twitch response; conditions: for head twitch response elicited by (±)-DOI: 1 mg*kg^−1 (±)-DOI s.c., pretreatment s.c., every dose tested (PIMA, (2S,4R)-2k 0.3 or 3 mg kg^−1, (2R,4R)-3h 3.0 or 5.6 mg kg^−1)
[13] = biological target: T3, 5-HT2BR; assay: Radioligand binding (competitive displacement and saturation), cell membranes; conditions: pKi at the 5-HT2BR, single experiment excluded from the reported data, excluded: excessive or incomplete radioligand displacement
[14] = biological target: T6, W158I^4.56 H1R (Homo sapiens, UniProt P35367, W158I)
T6 sequence (P35367 whole entry W158I): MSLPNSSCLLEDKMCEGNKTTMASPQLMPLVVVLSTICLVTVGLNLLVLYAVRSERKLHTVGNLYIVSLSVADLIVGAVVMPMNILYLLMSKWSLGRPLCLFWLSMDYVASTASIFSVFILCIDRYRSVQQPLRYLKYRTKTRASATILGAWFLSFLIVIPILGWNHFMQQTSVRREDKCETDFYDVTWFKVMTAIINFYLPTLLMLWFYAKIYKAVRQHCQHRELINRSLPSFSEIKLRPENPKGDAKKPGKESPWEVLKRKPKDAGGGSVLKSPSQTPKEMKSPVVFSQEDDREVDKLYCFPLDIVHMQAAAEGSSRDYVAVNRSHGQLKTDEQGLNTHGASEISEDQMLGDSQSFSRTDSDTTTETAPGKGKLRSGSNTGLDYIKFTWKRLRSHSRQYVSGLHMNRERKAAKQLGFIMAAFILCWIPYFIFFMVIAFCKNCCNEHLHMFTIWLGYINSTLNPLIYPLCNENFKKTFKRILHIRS

[15] = biological target: T7, H1R (Homo sapiens, UniProt P35367); assay: Radioligand binding (competitive displacement and saturation), cell membranes
T7 construct: host or cells: CHO, transient
T7 sequence (P35367 whole entry): as the sequence (P35367 whole entry W158I) above, with I158W counted along it
Protocol: as §1

[16] = biological target: human wild-type H1R (Homo sapiens, UniProt P35367); assay: IP-One HTRF IP1 accumulation assay; conditions: competitive antagonism of histamine-stimulated IP1 accumulation (10 μM histamine)
Chain of human wild-type H1R (P35367 whole entry): as the sequence (P35367 whole entry W158I) above, with I158W counted along it

[17] = tested on: male C57BL/6J mice; assay: Locomotor activity after (±)-DOI (open field); conditions: pretreatment 0.3 mg*kg^−1 s.c., compared to saline pretreatment (FIG. 3B)
[18] = biological target: T6, W158I^4.56 H1R; remark: listed apart in the source
[19] = biological target: D231F^5.35 5-HT2AR (Homo sapiens, UniProt P28223, D231F); assay: Exploratory saturation radioligand binding at point-mutated 5-HT2AR; conditions: membranes of transfected HEK293 cells (FIGS. 14A-14D)
Chain of D231F^5.35 5-HT2AR (P28223 whole entry D231F): as the sequence (P28223 whole entry C322K) above, with D231F, K322C counted along it

[20] = biological target: T8, 5-HT2AR (Homo sapiens, UniProt P28223); assay: Radioligand binding (competitive displacement and saturation), cell membranes; conditions: displacement of [^3H]ketanserin; mean of n independent experiments, ± SD where n ≥ 5
T8 construct: host or cells: HEK293, transient
T8 sequence (P28223 whole entry): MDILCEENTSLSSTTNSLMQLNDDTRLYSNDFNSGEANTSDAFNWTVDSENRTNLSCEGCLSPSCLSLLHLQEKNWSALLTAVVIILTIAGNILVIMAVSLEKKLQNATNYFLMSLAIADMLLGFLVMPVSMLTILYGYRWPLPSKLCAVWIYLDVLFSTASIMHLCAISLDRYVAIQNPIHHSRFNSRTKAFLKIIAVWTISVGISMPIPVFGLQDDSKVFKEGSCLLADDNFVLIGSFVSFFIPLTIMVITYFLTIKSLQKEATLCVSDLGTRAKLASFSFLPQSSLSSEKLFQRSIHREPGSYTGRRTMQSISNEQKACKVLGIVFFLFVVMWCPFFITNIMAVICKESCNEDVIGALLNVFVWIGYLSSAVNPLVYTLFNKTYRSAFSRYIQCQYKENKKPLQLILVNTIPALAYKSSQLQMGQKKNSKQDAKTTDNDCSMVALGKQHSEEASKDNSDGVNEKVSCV
Protocol: as §1

[21] = biological target: T9, F213K^4.63 5-HT2AR (Homo sapiens, UniProt P28223, F213K); assay: IP1 accumulation assay at point-mutated 5-HT2AR; format: cell-based; conditions: in the presence of 1 μM 5-HT; ± SD
T9 construct: expressed in transfected cells; host or cells: clonal cells
T9 sequence (P28223 whole entry F213K): as the sequence (P28223 whole entry C322K) above, with F213K, K322C counted along it
Protocol: as §1

[22] = biological target: T10, G238S^5.42 5-HT2AR (Homo sapiens, UniProt P28223, G238S); assay: IP1 accumulation assay at point-mutated 5-HT2AR; format: cell-based; conditions: in the presence of 1 μM 5-HT; ± SD
T10 construct: expressed in transfected cells; host or cells: clonal cells
T10 sequence (P28223 whole entry G238S): as the sequence (P28223 whole entry C322K) above, with G238S, K322C counted along it
Protocol: as §1

[23] = biological target: T11, I210V^4.60 5-HT2AR (Homo sapiens, UniProt P28223, I210V); assay: IP1 accumulation assay at point-mutated 5-HT2AR; format: cell-based; conditions: in the presence of 1 μM 5-HT; ± SD
T11 construct: expressed in transfected cells; host or cells: clonal cells
T11 sequence (P28223 whole entry I210V): as the sequence (P28223 whole entry C322K) above, with I210V, K322C counted along it
Protocol: as §1

[24] = biological target: T12, S242A^5.46 5-HT2AR (Homo sapiens, UniProt P28223, S242A); assay: IP1 accumulation assay at point-mutated 5-HT2AR; format: cell-based; conditions: in the presence of 1 μM 5-HT; ± SD
T12 construct: expressed in transfected cells; host or cells: clonal cells
T12 sequence (P28223 whole entry S242A): as the sequence (P28223 whole entry C322K) above, with S242A, K322C counted along it
Protocol: as §1

[25] = biological target: T13, V235M^5.39 5-HT2AR (Homo sapiens, UniProt P28223, V235M); assay: IP1 accumulation assay at point-mutated 5-HT2AR; format: cell-based; conditions: in the presence of 1 μM 5-HT; ± SD
T13 construct: expressed in transfected cells; host or cells: clonal cells
T13 sequence (P28223 whole entry V235M): as the sequence (P28223 whole entry C322K) above, with V235M, K322C counted along it
Protocol: as §1

[26] = biological target: human wild-type 5-HT2A (Homo sapiens, UniProt P28223); assay: IP-One HTRF IP1 accumulation assay; conditions: antagonism of IP1 accumulation in the presence of 1 μM 5-HT; ± SD
Chain of human wild-type 5-HT2A (P28223 whole entry): as the sequence (P28223 whole entry) above

[27] = biological target: T4, α1A-adrenergic receptor; assay: biochemical
[28] = biological target: T5, α1B-adrenergic receptor; assay: biochemical

`CN(C)c1ccc(-c2cccc([C@H]3C[C@H](N(C)C)Cc4ccccc43)c2)cc1` [(2S,4R)-2k, Trans-4-(4′-(dimethylamino)-[1,1′-biphenyl]-3-yl)-N,N-dimethyl-1,2,3,4-tetra-hydronaph-thalen-2-amine] was tested, and the “pKi 5-HT1A” value [1] was 5.58^(3), the “pKi 5-HT7” value [2] was 6.28^(3) and the “pKi D2L” value [3] was 5.70^(3). For the same molecule, the “pKi D3” value [4] was 6.92^(3), the “inverse agonist efficacy at C322K^6.34 5-HT2ARs (reduction of basal IP1 accumulation)” value [5] was about 60% and the “locomotor activity, compound administered alone” value [6] was “preserving general locomotor ability”. The Ki [7] was 0.0794 µM, the Ki [8] was 0.617 µM and the Ki [9] was 0.646 µM. The “pKb at 5-HT2BRs” value [10] was 5.59±0.50, the “partial agonist efficacy at 5-HT2BRs, exploratory screening” value ([10]; 10 μM ligand, change from basal IP1 normalized to 5-HT (FIG. 2A)) was about 13 % 5-HT and the “agonist activity at 5-HT2BRs, full concentration-response” value ([10]; FIG. 7A) was “did not reach statistical significance”. For the same molecule, the “inverse agonist efficacy (Imax) at 5-HT2CRs” value [11] was about 75%, the “head twitch response elicited by (±)-DOI” value [12] was “significantly attenuated the head twitch response” and the Ki [13] was 0.0479 µM.

With `NCCc1c[nH]cn1` [histamine] the “IP1 accumulation at W158I^4.56 H1Rs in response to histamine” value [14] was “unable to stimulate IP1 accumulation”.

For `CC(C)COc1ccc(CNC(=O)N(Cc2ccc(F)cc2)C2CCN(C)CC2)cc1` [PIMA, pimavanserin, reference compound], the “pKi H1R” value ([15]; displacement of [^3H]mepyramine, mean of n independent experiments, ± SD where n ≥ 5) was 5.50^(2), the “locomotor activity, compound administered alone” value [6] was “suppresses locomotor activity” and the Ki [7] was 0.437 µM. For the same molecule, the Kb [10] was 1.38 µM, the “pKb at H1Rs” value [16] was “little, if any, antagonism” and the “attenuation of head twitch response compared with the same dose of (2S,4R)-2k” value ([12]; 0.3 mg*kg^−1 s.c.) was “significantly more effective”. The “head twitch response elicited by (±)-DOI” value [12] was “significantly attenuated the head twitch response” and the “locomotor activity (distance traveled) of mice given 1 mg*kg^−1 DOI” value [17] was “locomotor suppression”.

In the case of `[3H]C([3H])(N1CCC(C(=O)c2ccc(F)cc2)CC1)C([3H])([3H])n1c(=O)[nH]c2ccccc2c1=O` [[^3H]Ketanserin], the “specific binding to W158I^4.56 H1Rs” value [18] is reported as “cannot be detected” and the “specific binding to D231F^5.35 5-HT2ARs” value [19] is reported as “no specific binding is detected”.

In the case of `CN(C)[C@@H]1Cc2ccccc2[C@H](c2cccc(-c3cccc(F)c3)c2)C1` (single isomer, unassigned) [(2R,4R)-3h, Cis-4-(3′-fluoro-[1,1′-biphenyl]-3-yl)-N,N-dimethyl-1,2,3,4-tetrahydronaphthalen-2-amine], the “pKi 5-HT2AR” value [20] is reported as 9.46 ± 0.34, the “pKi H1R” value [15] is reported as 7.31 ^(2) 7.39-7.23 8.96^(3) 9.11-8.88 6.20^(2) 6.23-6.18 6.30 ± 0.10^(5) 6.42-6.14 and the “pKi 5-HT1A” value [1] is reported as <5.0^(3). For the same molecule, the “pKi 5-HT7” value [2] was 6.29^(4), the “pKi D2L” value [3] was <5.0^(3) and the “pKi D3” value [4] was 6.21 ^(3). The “inverse agonist efficacy at C322K^6.34 5-HT2ARs (reduction of basal IP1 accumulation)” value [5] was about 60%, the “pIC50 inverse agonism at C322K^6.34 5-HT2ARs” value [5] was 6.81±0.39 and the “pKb F213K^4.63 5-HT2AR” value [21] was 7.04 ± 0.17. The “pKb G238S^5.42 5-HT2AR” value [22] was 4.59 ± 0.48, the “pKb I210V^4.60 5-HT2AR” value [23] was 7.18 ± 0.22 and the “pKb S242A^5.46 5-HT2AR” value [24] was 6.85 ± 0.36. The “pKb V235M^5.39 5-HT2AR” value [25] was 7.02 ± 0.26, the “locomotor activity, compound administered alone” value [6] was “preserving general locomotor ability” and the Ki [8] was 0.741 µM. For the same molecule, the Ki [9] was 0.794 µM, the “pKb Wild type 5-HT2AR” value [26] was 6.97 ± 0.37 and the “inverse agonist efficacy (Imax) at 5-HT2CRs” value [11] was “exhibits inverse agonism”. For the same molecule, the “pKb at H1Rs” value [16] was 5.82±0.22 and the “head twitch response elicited by (±)-DOI” value [12] was “significantly attenuated the head twitch response”.

For `CN(C)[C@@H]1Cc2ccccc2[C@@H](c2cccc(Br)c2)C1` (single isomer, unassigned) [(2S,4R)-2a, Trans-4-(3-bromophenyl)-N, N-dimethyl-1,2,3,4-tetrahydronaphthalen-2-amine], the Ki ([1]; read-out: pKi 5-HT1A (converted)) was over 10 µM, the Ki ([2]; read-out: pKi 5-HT7 (converted)) was 0.0417 µM and the Ki ([3]; read-out: pKi D2L (converted)) was 0.0692 µM. The Ki ([4]; read-out: pKi D3 (converted)) was 0.12 µM, the “inverse agonist efficacy at C322K^6.34 5-HT2ARs (reduction of basal IP1 accumulation)” value ([5]; below basal) was about 50% and the Ki [27] was 0.0102 µM. It also gave a Ki [28] of 3.24 µM.
